One may read the Ki as the equilibrium dissociation constant of an inhibitor or competing ligand from its target. For orientation: IC50 means the concentration that inhibits the measured activity by half. Read a high IC50 as weaker potency in that assay. One may read the EC50 as the concentration that produces a half-maximal response. High values mean weaker potency, low ones greater potency.

The target of assay [1] is T1, ERAlpha receptor (Homo sapiens, UniProt P03372).
T1 construct: purchased PanVera
T1 sequence (P03372 1-595): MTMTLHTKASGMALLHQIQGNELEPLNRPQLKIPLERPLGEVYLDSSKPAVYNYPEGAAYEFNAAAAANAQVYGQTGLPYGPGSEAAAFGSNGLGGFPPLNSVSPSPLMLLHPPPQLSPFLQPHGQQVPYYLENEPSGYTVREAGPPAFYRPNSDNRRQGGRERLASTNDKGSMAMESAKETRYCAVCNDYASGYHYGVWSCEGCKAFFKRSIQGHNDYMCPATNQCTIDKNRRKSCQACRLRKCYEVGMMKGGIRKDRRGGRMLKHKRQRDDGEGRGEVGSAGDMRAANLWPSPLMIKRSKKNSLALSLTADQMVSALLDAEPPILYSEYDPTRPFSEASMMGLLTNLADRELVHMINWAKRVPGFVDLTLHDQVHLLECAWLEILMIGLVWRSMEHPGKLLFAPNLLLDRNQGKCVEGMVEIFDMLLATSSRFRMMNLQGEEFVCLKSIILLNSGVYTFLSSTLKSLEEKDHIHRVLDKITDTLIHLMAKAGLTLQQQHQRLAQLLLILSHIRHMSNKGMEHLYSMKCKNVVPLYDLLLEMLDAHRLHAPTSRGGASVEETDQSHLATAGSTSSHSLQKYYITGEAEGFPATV
Put plainly: ER alpha competition binding assay (3H-Estradiol). To be noted: 3H-Estradiol competition; IC50 converted to Ki using Cheng-Prusoff; read-out: ER binding Ki (ERα). As for the experimental part:
(§1) Competition binding assay is run in a buffer containing 50 mM Hepes, pH 7.5, 1.5 mM EDTA, 150 mM NaCl, 10% glycerol, 1 mg/ml ovalbumin and 5 mM DTT, using 0.025 μCi per well ^3H-Estradiol(NEN #NET517 at 118 Ci/mmol, 1 mCi/ml), 10 ng/well ERAlpha or ERbeta receptor (PanVera). Competing compounds are added at 10 different concentrations. Non-specific binding is determined in the presence of 1 μM of 17-B Estradiol. The binding reaction (140 μl) is incubated for 4 hours at room temperature, then 70 μl of cold DCC buffer is added to each reaction (DCC buffer contains per 50 ml of assay buffer, 0.75 g of charcoal (Sigma) and 0.25 g of dextran (Pharmacia)). Plates are mixed 8 minutes on an orbital shaker at 4° C. Plates are then centrifuged at 3,000 rpm at 4° C. for 10 minutes. An aliquot of 120 μl of the mix is transferred to another 96-well, white flat bottom plate (Costar) and 175 μl of Wallac Optiphase “Hisafe 3” scintillation fluid is added to each well. Plates are sealed and shaken vigorously on an orbital shaker. After an incubation of 2.5 hrs, read plates in a Wallac Microbeta counter. […] The Kd for ^3H-Estradiol is determined by saturation binding to ER alpha and ER beta receptors. The IC50 values for compounds are converted to Ki using Cheng-Prusoff equation and the Kd determined by saturation binding assay.

For assay [2], the target named is T2, ERbeta receptor (Homo sapiens, UniProt Q92731).
T2 construct: purchased PanVera
T2 sequence (Q92731 whole entry): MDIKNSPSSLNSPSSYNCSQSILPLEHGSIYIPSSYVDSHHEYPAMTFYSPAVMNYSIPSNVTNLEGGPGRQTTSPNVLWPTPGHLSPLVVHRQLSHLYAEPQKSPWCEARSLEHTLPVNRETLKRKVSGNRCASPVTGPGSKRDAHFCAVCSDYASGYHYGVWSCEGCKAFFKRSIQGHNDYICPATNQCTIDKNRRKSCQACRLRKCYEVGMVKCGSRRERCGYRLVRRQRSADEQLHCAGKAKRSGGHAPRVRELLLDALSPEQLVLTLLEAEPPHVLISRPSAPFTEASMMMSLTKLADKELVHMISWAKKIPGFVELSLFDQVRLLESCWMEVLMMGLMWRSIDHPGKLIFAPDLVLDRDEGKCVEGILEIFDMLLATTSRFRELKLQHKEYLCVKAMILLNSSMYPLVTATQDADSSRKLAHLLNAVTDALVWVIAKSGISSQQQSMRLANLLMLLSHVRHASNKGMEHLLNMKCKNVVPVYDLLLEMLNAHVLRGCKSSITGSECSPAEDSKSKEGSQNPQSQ
Kind of assay: ER beta competition binding assay (3H-Estradiol). To be noted: 3H-Estradiol competition; IC50 converted to Ki using Cheng-Prusoff; read-out: ER binding Ki (ERβ). As for the experimental part: as §1

The test system of assay [3] is MCF-7 breast adenocarcinoma cells. Put plainly: MCF-7 proliferation assay (14C-thymidine), antagonist mode. The format is cell-based. To be noted: Homo sapiens, MCF7, antagonist mode, with 10 pM E2. As for the experimental part: MCF-7 breast adenocarcinoma cells (ATCC HTB 22) are maintained in MEM (minimal essential medium, phenol red-free, Gibco BRL) supplemented with 10% fetal bovine serum (FBS) (V/V), L-glutamine (2 mM), sodium pyruvate (1 mM), HEPES ((N-[2-hydroxyethyl]piperazine-N′-[2-ethanesulfonic acid]10 mM}, non-essential amino acids(0.1 mM)and Penicillin Streptomycin(1×). Seven days prior to assay, MCF-7 cells are switched to assay media which is the same as maintenance medium except supplemented with 10% dextran-coated charcoal-stripped fetal bovine serum (DCC-FBS) assay medium in place of 10% FBS. MCF-7 cells are removed from flasks using 10× Trypsin EDTA (phenol red free, Gibco BRL) and diluted to 1× in (Ca++/Mg++ free HBSS (phenol red-free). Cells are adjusted to 80,000 cells/ml in assay medium. Approximately 8,000 cells (100 μl) are added to each well in 96 well Cytostar T scintillation plates (Amersham) and incubated at 37° C. in a 5% CO2 humidified incubator for 24 hours to allow cell adherence and equilibration after transfer. Serial dilutions of drugs are prepared in assay medium at 4× the final desired concentration). A 50 μl aliquot of drug dilutions (at 4× the final assay concentration) is transferred to duplicate wells followed by 50 μl assay medium for the agonist mode or 50 μl of 40 pM of E2 for the antagonist mode to a final volume of 200 μl. For each of the agonist plates, a basal level (media) and a maximum stimulated level (with 1 μM E2) is determined. For each of the antagonist plates, a basal level (media) and a E2 (10 pM) alone control is determined. After an additional 48 hours at 37° C. in a 5% CO2 humidified incubator, 20 μl of assay medium containing 0.01 μCi of ^14C-thymidine (52 mCi/mmol, […], Amersham) is added to each well. The plates are incubated overnight in the same incubator and then counted on the Wallac Microbeta counter. […] For the agonist mode, an EC50 and percent of maximum E2 stimulation and concentration of maximum stimulation is calculated.

The subject of assay [4] is Ishikawa human endometrial tumor cells. Put plainly: Ishikawa cell assay (PNPP readout), agonist mode. The format is cell-based. The settings on record: Homo sapiens, Ishikawa; for Emax: % efficacy versus the response to Tamoxifen, read-out: Ishikawa Agonist % Eff. An excerpt: (§2) Ishikawa human endometrial tumor cells are maintained in MEM (minimum essential medium, with Earle's salts and L-Glutamine, Gibco BRL, Gaithersburg, Md.), supplemented with 10% fetal bovine serum (FBS) (V/V), (Gibco BRL). One day prior to assay, growth media is changed to assay medium, DMEM/F-12 (3:1) (Dulbecco's Modified Eagle Medium: Nutrient Mixture F-12, 3:1 Mixture, phenol red-free, Gibco BRL) supplemented with 5% dextran coated charcoal stripped fetal bovine serum (DCC-FBS) (Hyclone, Logen, Utah), L-Glutamine (2 mM), MEM sodium pyruvate (1 mM), HEPES (N-[2-hydroxyethyl]piperazine-N′-[2-ethanesulfonic acid] 2 mM) all from Gibco BRL). After an overnight incubation, ishikawa cells are rinsed with Dulbecco's Phosphate Buffered Saline (1×) (D-PBS) without Ca^+2 and Mg^+2 (Gibco BRL), and trypsinized by a 3 minute incubation with 0.25% Trypsin/EDTA, phenol red-free (Gibco BRL). Cells are resuspended in assay medium and adjusted to 250,000 cells/ml. Approximately 25,000 cells in a 100 ul media are added to flat-bottom 96 wells microculture plates (Costar 3596) and incubated at 37° C. in a 5% CO2 humidified incubator for 24 hours. The next day, serial dilutions of compounds are prepared in assay medium (at 6 times the final concentration in the assay). The assay is run in dual mode, agonist and antagonist modes. For the agonist mode, plates receive 25 μl/well of assay medium followed by 25 μl/well of diluted compounds (at 6× the final concentrations). For the antagonist mode, plates receive 25 μl/well of 6 nM E2 (β-Estradiol, Sigma, St. Louis, Mo.) followed by 25 μl/well of diluted compounds (at 6× the final concentrations). After an additional 48-hour incubation at 37° C. in a 5% CO2 humidified incubator, media is aspirated from wells and 100 μl fresh assay medium is added to each microculture. Serial dilutions of compounds are prepared and added to the cells as described above. After an additional 72 hour incubation at 37° C. in a 5% CO2 humidified incubator, the assay is quenched by removing media and rinsing plates twice in Dulbecco's Phosphate Buffered Saline (1×) (D-PBS) (Gibco BRL). The plates are dried for 5 min and frozen at −70° C. for at least 1 hour. The plates are then removed from the freezer and allowed to thaw at room temperature. To each well, 100 μl of 1-Step™ PNPP (Pierce Chemical Company, Rockford, Ill.) is added. After a 20-minute incubation, plates are read on a spectophotometer at 405 nm. The data is fitted to a linear interpolation to derive EC50 (for agonist mode) or IC50 (for antagonist mode) values. For the agonist mode, a % efficacy for each compound is calculated versus the response to Tamoxifen. For the antagonist mode, a % efficacy for each compound is calculated versus E2 (1 nM) alone.

Assay [5] has the same test system. Put plainly: Ishikawa cell assay (PNPP readout), antagonist mode. The format is cell-based. To be noted: with 1 nM E2.
From the text: as §2

Counter-ions that a name gives are not always drawn.

As to `Oc1ccc2c3c(sc2c1)Cc1cccc(O)c1C3c1ccc(OCCN2CCCCC2)cc1` (stereo not drawn) [Example 3, 11-[4-(2-Piperidin-1-yl-ethoxy)-phenyl]-6,11-dihydro-benzo[b]naphtho[2,3-d]thiophene-3,10-diol trifluoroacetate], the Ki was 3 nM in assay [1] and 14 nM in assay [2]. The IC50 is 42 nM in assay [3] and 682 nM in assay [5]. Besides, a half-maximal response in assay [4] (EC50) required 3 nM. Also, the Emax in assay [4] is 135%.

Regarding `Oc1ccc2c(c1)C(c1ccc(OCCN3CCCCC3)cc1)c1c(sc3cc(O)ccc13)C2` (stereo not drawn) [Example 4, 11-[4-(2-Piperidin-1-yl-ethoxy)-phenyl]-6,11-dihydro-benzo[b]naphtho[2,3-d]thiophene-3,9-diol], the Ki in assay [1] and in assay [2] was 1 nM each time. Further, the IC50 worked out at 1 nM in assay [3] and 53 nM in assay [5]. Besides, a half-maximal effect in assay [4] (EC50) was put at 1 nM. Also, the Emax in assay [4] amounted to 56%.

`Oc1ccc2c(c1)C(c1ccc(OCCN3CCCCC3)cc1)c1c(ccc3cc(O)ccc13)C2` (stereo not drawn) [Example 8, 12-[4-(2-Piperidin-1-yl-ethoxy)-phenyl]-7,12-dihydro-benzo[a]anthracene-3,10-diol]: the Ki in assay [1] came out at 1 nM; in assay [2], 3 nM. Also, the IC50 in assay [3] turned out to be 7 nM; in assay [5], 130 nM. Further, the EC50 in assay [4] was determined as 3 nM. The Emax in assay [4] was found to be 75%.

Consider `Oc1ccc2c3c(ccc2c1)Cc1cccc(O)c1C3c1ccc(OCCN2CCCCC2)cc1` (stereo not drawn) [Example 12, 12-[4-(2-Piperidin-1-yl-ethoxy)-phenyl]-7,12-dihydro-benzo[a]anthracene-3,11-diol], for which the Ki in assay [1] was determined as 8 nM; in assay [2], 40 nM. Moreover, the IC50 in assay [3] is 68 nM; in assay [5], 582 nM. This compound displayed an EC50 in assay [4] of 28 nM. For the same compound, in assay [4], the Emax was found to be 77%.

On to `Oc1ccc2c3c(ccc2c1)Cc1c(O)cccc1C3c1ccc(OCCN2CCCCC2)cc1` (stereo not drawn) [Example 13, 12-[4-(2-Piperidin-1-yl-ethoxy)-phenyl]-7,12-dihydro-benzo[a]anthracene-3,8-diol], for which the Ki came to 1 nM in assay [1] and 5 nM in assay [2]. The IC50 in assay [3] amounted to 3 nM; in assay [5], 50 nM. Also, the response in assay [4] was half-maximal at 1 nM (EC50). For the same compound, the Emax in assay [4] turned out to be 121%.
